Laboratory results as given in patent US20080207614A1, “QUINAZOLINE DERIVATIVES FOR THE TREATMENT AND PREVENTION OF DIABETES AND OBESITY” (SK CHEMICALS CO., LTD., priority 2004, published 2008).

How the values were obtained:
AMPK = assay: Measurement of AMPK activity by Western blot in C2C12 cells; assay type: cell-based; design: key to AMPK activity (degree of phosphorylation of serine-79 and threonine-172): fold increase in threonine-172 phosphorylation; AMPK activity (degree of phosphorylation of serine-79): unit not given here; settings: 10 μM for 50 minutes; for AMPK activity (degree of phosphorylation of serine-79 and threonine-172): no superscript: Western blot of serine-79 and threonine-172 phosphorylation; for AMPK activity (class: degree of phosphorylation of threonine-172): strong/mild/weak; for AMPK activity (degree of phosphorylation of serine-79): footnote a: Western blot of serine-79 phosphorylation
Method in brief: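 Western blot readout of AMPK Thr-172 and ACC Ser-79 phosphorylation, normalised against ERK, served as the activity measure. Cells were C2C12 after differentiation, treated 50 minutes with 10 μM test material. Grading by Thr-172 increase: ≥3-fold strong, 1-3-fold mild, <1-fold weak.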

C2C12 muscle cells = assay: Analysis of glucose absorption (2-deoxyglucose) in differentiated C2C12 muscle cells; assay type: cell-based; settings: test materials 10 μM, times relative to control group
Method in brief: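 Uptake of 0.2 μCi 2-deoxyglucose over 20 min, counted radiometrically in lysed cells. Before tracer, compounds (10 μM) were applied for 30 min to C2C12 cells differentiated 6 days in 1% serum and equilibrated 3 h in 5 mM glucose KRB.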

Row | SMILES | AMPK activity (degree of phosphorylation of serine-79 and threonine-172) (AMPK) | Glucose absorption (C2C12 muscle cells) | AMPK activity (class: degree of phosphorylation of threonine-172) (AMPK) | AMPK activity (degree of phosphorylation of serine-79) (AMPK)
1 | c1ccc2c(NCc3ccc4c(c3)OCO4)nc(N3CCOCC3)nc2c1 [Compound 309, Benzo[1,3]dioxol-5-ylmethyl-(2-morpholino-4-ylquinazolino-4-yl)-amine] | 1.3 | 0.8 | – | –
2 | COc1ccccc1CNc1nc(Cc2ccccc2)nc2ccccc12 [Compound 328, (2-Benzylquinazolino-4-yl)-(2-methoxybenzyl)-amine] | 3.8 | 1.4 | – | –
3 | COc1ccc(CNc2nc(C(C)c3ccccc3)nc3ccccc23)c(OC)c1 (stereo not shown) [Compound 379, (2,4-Dimethoxybenzyl)-[2-(1-phenylethyl)-quinazolino-4-yl]-amine] | 6.1 | 1.1 | – | –
4 | CCSc1nc(NCc2c(F)cccc2Cl)c2ccccc2n1 [Compound 49, (2-Chloro-6-fluorobenzyl)-(2-ethylsulfanylquinazolino-4-yl)-amine] | – | 1.8 | mild (“mild” means that the degree of phosphorylation of threonine-172 increased by 1 to 3 times) | –
5 | CC(C)(C)c1nc(NCCc2cccc(F)c2)c2ccccc2n1 [Compound 196, (2-tert-Butylquinazolino-4-yl)-[2-(3-fluorophenyl)-ethyl]-amine] | 4.8 | 2.1 | strong (“strong” means that the degree of phosphorylation of threonine-172 increased by 3 times or more) | –
6 | COc1cc(CNc2nc(C3CC3)nc3ccccc23)cc(OC)c1OC [Compound 389, (2-Cyclopropylquinazolino-4-yl)-(3,4,5-trimethoxybenzyl)-amine] | 2.2 | 1.3 | – | –
7 | COc1cc(CNc2nc(C(C)c3ccccc3)nc3ccccc23)cc(OC)c1OC (stereo not shown) [Compound 378, [2-(1-Phenylethyl)-quinazolino-4-yl]-(3,4,5-trimethoxybenzyl)-amine] | 4.7 | 0.9 | – | –
8 | COc1ccc(CNc2nc(C(C)C)nc3ccccc23)c(OC)c1 [Compound 271, (2,4-Dimethoxybenzyl)-(2-isopropylquinazolino-4-yl)-amine] | 2.4 | 0.8 | – | –
9 | COc1ccc(OC)c(CNc2nc(C(C)C)nc3ccccc23)c1 [Compound 326, (2,5-Dimethoxybenzyl)-(2-isopropylquinazolino-4-yl)-amine] | 2.9 | 1.2 | – | –
10 | CC(C)c1nc(NCc2cccc(C(F)(F)F)c2)c2ccccc2n1 [Compound 178, (2-Isopropylquinazolino-4-yl)-(3-trifluoromethylbenzyl)-amine] | 5.7 | 4.2 | strong (“strong” means that the degree of phosphorylation of threonine-172 increased by 3 times or more) | –
11 | COc1cc(CNc2nc(C(C)C)nc3ccccc23)cc(OC)c1OC [Compound 325, (2-Isopropylquinazolino-4-yl)-(3,4,5-trimethoxybenzyl)-amine] | 2.2 | 1.2 | – | –
12 | CCOc1cc2ncnc(NCc3cccc4ccccc34)c2cc1OCC [Compound 14, (6,7-Diethoxyquinazolino-4-yl)-naphthaleno-1-ylmethylamine] | – | 1.2 | – | 3.6^a
13 | COc1ccc(CNc2nc(C(OC)c3ccccc3)nc3ccccc23)cc1 (stereo not shown) [Compound 362, (4-Methoxybenzyl)-[2-(methoxyphenylmethyl)-quinazolino-4-yl]-amine] | 2.6 | 1.2 | – | –
14 | COc1cccc(CNc2nc(C3CCCCC3)nc3ccccc23)c1 [Compound 200, (2-Cyclohexylquinazolino-4-yl)-(3-methoxybenzyl)-amine] | 1.5 | 2.7 | strong (“strong” means that the degree of phosphorylation of threonine-172 increased by 3 times or more) | –
15 | COc1cccc(CNc2nc(C(OC)c3ccccc3)nc3ccccc23)c1OC (stereo not shown) [Compound 364, (2,3-Dimethoxybenzyl)-[2-(methoxyphenylmethyl)-quinazolino-4-yl]-amine] | 1.2 | 1.3 | – | –
16 | c1ccc2c(NCc3ccc4c(c3)OCO4)ncnc2c1 [Compound 407, Benzo[1,3]dioxol-5-ylmethylquinazolino-4-ylamine] | 1.3 | 1.5 | – | –

Row | SMILES | AMPK activity (degree of phosphorylation of serine-79 and threonine-172) (AMPK) | Glucose absorption (C2C12 muscle cells) | AMPK activity (class: degree of phosphorylation of threonine-172) (AMPK) | AMPK activity (degree of phosphorylation of serine-79) (AMPK)
17 | Brc1ccc(CNc2nc(-c3ccccc3)nc3ccccc23)cc1 [Compound 148, (4-Bromobenzyl)-(2-phenylquinazolino-4-yl)-amine] | 1.7 | 2.1 | strong (“strong” means that the degree of phosphorylation of threonine-172 increased by 3 times or more) | –
18 | O=[N+]([O-])c1ccc2ncnc(Nc3ccccc3)c2c1 [Compound 13, (6-Nitro-quinazolino-4-yl)-phenylamine] | – | 0.7 | – | 4.2^a
19 | Fc1ccc(CNc2nc(-c3ccccc3)nc3ccccc23)c(F)c1 [Compound 134, (2,4-Difluorobenzyl)-(2-phenylquinazolino-4-yl)-amine] | 1.8 | 2.6 | strong (“strong” means that the degree of phosphorylation of threonine-172 increased by 3 times or more) | –
20 | Brc1ccc(CCNc2nc(-c3ccccc3)nc3ccccc23)cc1 [Compound 137, [2-(4-Bromophenyl)-ethyl]-(2-phenylquinazolino-4-yl)-amine] | 3.1 | 2.4 | strong (“strong” means that the degree of phosphorylation of threonine-172 increased by 3 times or more) | –
21 | CCSc1nc(NC(C)CC)c2ccccc2n1 (stereo not shown) [Compound 20, sec-Butyl-(2-ethylsulfanylquinazolino-4-yl)-amine] | – | 1.9 | weak (“weak” means that the degree of phosphorylation of threonine-172 increased by less than 1 time) | –
22 | OCCOCCNc1nc(-c2ccccc2)nc2ccccc12 [Compound 1, 2-[2-(2-Phenylquinazolino-4-ylamino)-ethoxy]-ethanol] | – | 1.7 | – | 6.0^a
23 | CN1CCN(c2nc(NCc3ccc4c(c3)OCO4)c3ccccc3n2)CC1 [Compound 310, Benzo[1,3]dioxol-5-ylmethyl-[2-(4-methylpiperazino-1-yl)-quinazolino-4-yl]-amine] | 1.6 | 0.9 | – | –
24 | COc1ccc(CNc2nc(N3CCOCC3)nc3ccccc23)cc1OC [Compound 301, (3,4-Dimethoxybenzyl)-(2-morpholino-4-ylquinazolino-4-yl)-amine] | 0.9 | 0.8 | – | –
25 | COc1ccc(CNc2nc(C3CC3)nc3ccccc23)cc1 [Compound 384, (2-Cyclopropylquinazolino-4-yl)-(4-methoxybenzyl)-amine] | 2.0 | 1.2 | – | –
26 | COc1ccc(CNc2nc(N3CCCC3)nc3ccccc23)c(OC)c1 [Compound 291, (2,4-Dimethoxybenzyl)-(2-pyrrolidino-1-ylquinazolino-4-yl)-amine] | 1.5 | 0.8 | – | –
27 | COc1ccc(CNc2nc(-c3cccs3)nc3ccccc23)cc1OC [Compound 355, (3,4-Dimethoxybenzyl)-(2-thiopenyl-2-ylquinazolino-4-yl)-amine] | 1.1 | 1.2 | – | –
28 | COc1cccc(CNc2nc(C3CC3)nc3ccccc23)c1 [Compound 383, (2-Cyclopropylquinazolino-4-yl)-(3-methoxybenzyl)-amine] | 2.2 | 1.4 | – | –
29 | COc1ccc(CNc2nc(C(OC)c3ccccc3)nc3ccccc23)c(OC)c1 (stereo not shown) [Compound 368, (2,4-Dimethoxybenzyl)-[2-(methoxyphenylmethyl)-quinazolino-4-yl]-amine] | 5.9 | 1.1 | – | –
30 | Cc1ccc(CCNc2nc(-c3ccccc3)nc3ccccc23)cc1 [Compound 119, (2-Phenylquinazolino-4-yl)-(2-p-tollylethyl)-amine] | 2.3 | 2.6 | strong (“strong” means that the degree of phosphorylation of threonine-172 increased by 3 times or more) | –
31 | Cc1nc(NCCc2ccccc2)c2ccccc2n1 [Compound 167, (2-Methylquinazolino-4-yl)-phenethylamine] | 6.7 | 3.2 | strong (“strong” means that the degree of phosphorylation of threonine-172 increased by 3 times or more) | –
